# Reference: patent US9290451B2 (Hoffmann-La Roche Inc., priority 2011, dated 2016)
# Read-outs that look alike come from different tables or passages of the source.
# How the values were obtained:
# human CB2 receptors = human CB2 receptors (Homo sapiens (Human), UniProt P34972); test: cAMP assay, CHO cells expressing human CB2 receptors; format: cell-based
# How it was run: (§1)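 Agonist EC50 values come from cAMP levels measured in intact CHO cells. Compounds act for 30 min at 30 °C in the presence of 1 mM IBMX, and cAMP is then detected by time-resolved energy transfer after lysis.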
# human CB1 receptors = human CB1 receptors (Homo sapiens (Human), UniProt P21554); test: cAMP assay, CHO cells expressing human CB1 receptors; format: cell-based
# How it was run: as §1
# [1] = CHO cells expressing human CB2, cAMP, read-out: human CB2 EC50
# [2] = CHO cells expressing human CB1, cAMP, read-out: human CB1 EC50
# Sequence of human CB2 receptors (P34972 whole entry): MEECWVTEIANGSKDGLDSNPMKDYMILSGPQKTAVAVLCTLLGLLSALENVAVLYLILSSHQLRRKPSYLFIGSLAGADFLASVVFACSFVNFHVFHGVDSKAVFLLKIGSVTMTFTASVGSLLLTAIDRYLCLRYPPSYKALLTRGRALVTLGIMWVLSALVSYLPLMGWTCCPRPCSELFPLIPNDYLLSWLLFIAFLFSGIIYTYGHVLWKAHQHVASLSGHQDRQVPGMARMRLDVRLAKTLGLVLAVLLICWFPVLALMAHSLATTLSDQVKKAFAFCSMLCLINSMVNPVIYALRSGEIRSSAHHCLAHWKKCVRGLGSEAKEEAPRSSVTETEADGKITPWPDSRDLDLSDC
# Sequence of human CB1 receptors (P21554 whole entry): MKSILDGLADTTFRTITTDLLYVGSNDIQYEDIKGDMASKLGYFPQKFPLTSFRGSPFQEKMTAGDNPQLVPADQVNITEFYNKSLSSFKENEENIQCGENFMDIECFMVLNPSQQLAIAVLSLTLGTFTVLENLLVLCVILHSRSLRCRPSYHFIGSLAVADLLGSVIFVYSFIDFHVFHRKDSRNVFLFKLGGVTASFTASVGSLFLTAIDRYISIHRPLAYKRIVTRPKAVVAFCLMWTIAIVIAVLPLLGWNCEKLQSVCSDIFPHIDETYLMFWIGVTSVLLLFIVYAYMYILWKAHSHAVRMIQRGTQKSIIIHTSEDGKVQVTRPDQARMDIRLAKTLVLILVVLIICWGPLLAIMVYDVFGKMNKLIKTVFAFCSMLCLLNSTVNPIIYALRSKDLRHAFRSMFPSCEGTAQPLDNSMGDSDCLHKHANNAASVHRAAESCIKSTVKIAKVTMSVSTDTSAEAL
Structure (SMILES),EC50 (human CB2 receptors; [1]) [nM],EC50 (human CB1 receptors; [2]) [nM],EC50 (human CB2 receptors) [nM],EC50 (human CB1 receptors) [nM]
"CC(C)(C)[C@H](NC(=O)c1ccc(N2CC(F)(F)C2)c(OCC2CC2)n1)C(=O)N1CC(F)(F)C1 [Example 310, 6-Cyclopropylmethoxy-5-(3,3-difluoro-azetidin-1-yl)-pyridine-2-carboxylic acid [(S)-1-(3,3-difluoro-azetidine-1-carbonyl)-2,2-dimethyl-propyl]-amide]",14.7,> 10000,–,–
"CNC(=O)[C@@H](NC(=O)c1cccc(-c2cccc(C(F)(F)F)c2)n1)C(C)(C)C [Example 214, (S)-N-(3,3-Dimethyl-1-(methylamino)-1-oxobutan-2-yl)-6-(3-(trifluoromethyl)phenyl)-picolinamide]",53.7,1630,–,–
"COCCOc1nc(C(=O)N[C@@H](CC2CC2)C(N)=O)ccc1C1CC1 [Example 161, 5-Cyclopropyl-6-(2-methoxy-ethoxy)-pyridine-2-carboxylic acid ((S)-1-carbamoyl-2-cyclopropyl-ethyl)-amide]",124,> 10000,–,–
"O=C(NN1CCCCC1)c1cccc(C2CCOCC2)n1 [Example 37, 6-(Tetrahydro-pyran-4-yl)-pyridine-2-carboxylic acid piperidin-1-ylamide]",625,> 10000,–,–
"CC(C)(C#N)NC(=O)c1ccc(C2CC2)c(OCC2CC2)n1 [Example 167, N-(2-Cyanopropan-2-yl)-5-cyclopropyl-6-(cyclopropylmethoxy)picolinamide]",206,> 10000,–,–
"CCC(CC)(NC(=O)c1ccc(C(F)(F)F)c(OCC2CCOCC2)n1)C(=O)OC [Example 238, 2-Ethyl-2-{[6-(tetrahydro-pyran-4-ylmethoxy)-5-trifluoromethyl-pyridine-2-carbonyl]-amino}-butyric acid methyl ester]",0.4,146,–,–
"CC(C)(NC(=O)c1ccc(N2CC(F)(F)C2)c(-c2cccc(Cl)c2)n1)c1nccs1 [Example 156, 6-(3-Chloro-phenyl)-5-(3,3-difluoro-azetidin-1-yl)-pyridine-2-carboxylic acid (1-methyl-1-thiazol-2-yl-ethyl)-amide]",334,> 10000,–,–
"CCC(CC)(NC(=O)c1ccc(C2CC2)c(OCC2CC2)n1)C(=O)NCCOC [Example 275, 5-Cyclopropyl-6-cyclopropylmethoxy-pyridine-2-carboxylic acid [1-ethyl-1-(2-methoxy-ethylcarbamoyl)-propyl]-amide]",51.8,> 10000,–,–
"CC(C)C[C@H](NC(=O)c1cccc(-c2cccc(Cl)c2)n1)c1nccs1 [Example 56, 6-(3-Chloro-phenyl)-pyridine-2-carboxylic acid ((S)-3-methyl-1-thiazol-2-yl-butyl)-amide]",173,> 10000,–,–
"CCC(CC)(NC(=O)c1ccc(C2CC2)c(O[C@@H](CCO)C(F)(F)F)n1)C(=O)NC [Example 319, 5-Cyclopropyl-6-((S)-3-hydroxy-1-trifluoromethyl-propoxy)-pyridine-2-carboxylic acid (1-ethyl-1-methylcarbamoyl-propyl)-amide]",344,> 10000,–,–
"CCC(CC)(NC(=O)c1ccc(C2CC2)c(OCC2CC2)n1)C(=O)NCCO [Example 356, 5-Cyclopropyl-6-cyclopropylmethoxy-pyridine-2-carboxylic acid [1-ethyl-1-(2-hydroxy-ethylcarbamoyl)-propyl]-amide]",5.2,> 10000,–,–
"CNC(=O)[C@@H](NC(=O)c1cccc(-c2cccc(OC)c2)n1)C(C)(C)C [Example 215, (S)-N-(3,3-Dimethyl-1-(methylamino)-1-oxobutan-2-yl)-6-(3-methoxyphenyl) picolinamide]",125,> 10000,–,–
"CN(C)C(=O)[C@@H](NC(=O)c1ccc(C2CC2)c(OCC2CC2)n1)c1ccccc1 [Example 226, 5-Cyclopropyl-6-cyclopropylmethoxy-pyridine-2-carboxylic acid ((+)-dimethylcarbamoyl-phenyl-methyl)-amide]",19.9,> 10000,–,–
"CC(C)C[C@@H](CO)NC(=O)c1ccc(C2CC2)c(OCC(F)(F)F)n1 [Example 303, 5-Cyclopropyl-6-(2,2,2-trifluoro-ethoxy)-pyridine-2-carboxylic acid ((S)-1-hydroxymethyl-3-methyl-butyl)-amide]",38,> 10000,–,–
"CCC(CC)(NC(=O)c1ccc(N2CC(F)(F)C2)c(OCC2CC2)n1)C(=O)N1CC(F)(F)C1 [Example 307, 6-Cyclopropylmethoxy-5-(3,3-difluoro-azetidin-1-yl)-pyridine-2-carboxylic acid [1-(3,3-difluoro-azetidine-1-carbonyl)-1-ethyl-propyl]-amide]",4.7,> 10000,–,–
Cc1nc([C@H](CC2CC2)NC(=O)c2cccc(-c3cccc(Cl)c3)n2)no1 [Example 38],99.7,> 10000,–,–
"CC(C)C[C@H](NC(=O)c1ccc(C2CC2)c(OCc2ccccn2)n1)C(N)=O [Example 200, (S)-N-(1-Amino-4-methyl-1-oxopentan-2-yl)-5-cyclopropyl-6-(pyridin-2-ylmethoxy)picolinamide]",23.3,> 10000,–,–

Structure (SMILES),EC50 (human CB2 receptors; [1]) [nM],EC50 (human CB1 receptors; [2]) [nM],EC50 (human CB2 receptors) [nM],EC50 (human CB1 receptors) [nM]
"CC1(COc2nc(C(=O)NC(C)(C)c3nccs3)ccc2N2CC(F)(F)C2)COC1 [Example 295, 5-(3,3-Difluoro-azetidin-1-yl)-6-(3-methyl-oxetan-3-ylmethoxy)-pyridine-2-carboxylic acid (1-methyl-1-thiazol-2-yl-ethyl)-amide]",259,> 10000,–,–
"CNC(=O)C(C)(C)NC(=O)c1ccc(C2CC2)c(-c2cccc(Cl)c2)n1 [Example 67, 6-(3-Chloro-phenyl)-5-cyclopropyl-pyridine-2-carboxylic acid (1-methyl-1-methylcarbamoyl-ethyl)-amide]",797,> 10000,–,–
"CC(C)(NC(=O)c1ccc(C2CC2)c(-c2cccc(Cl)c2)n1)c1ncco1 [Example 95, 6-(3-Chloro-phenyl)-5-cyclopropyl-pyridine-2-carboxylic acid (1-methyl-1-oxazol-2-yl-ethyl)-amide]",83.9,> 10000,–,–
"CCOC(=O)C(CC)(CC)NC(=O)c1ccc(N2CCC23COC3)c(OCC2CC2)n1 [Example 263, 2-{[6-Cyclopropylmethoxy-5-(6-oxa-1-aza-spiro[3.3]hept-1-yl)-pyridine-2-carbonyl]-amino}-2-ethyl-butyric acid ethyl ester]",4.5,> 10000,–,–
"CC(C)(NC(=O)c1ccc(C2CC2)c(-c2cccc(Cl)c2)n1)c1nccs1 [Example 116, 6-(3-Chloro-phenyl)-5-cyclopropyl-pyridine-2-carboxylic acid (1-methyl-1-thiazol-2-yl-ethyl)-amide]",–,–,85.9,1450
"CC(C)(C)C(NC(=O)c1ccc(C2CC2)c(OCC(F)(F)F)n1)c1nccs1 (stereo not drawn) [Example 306, 5-Cyclopropyl-6-(2,2,2-trifluoro-ethoxy)-pyridine-2-carboxylic acid (2,2-dimethyl-1-thiazol-2-yl-propyl)-amide]",138,> 10000,–,–
"C[C@@H](C#N)NC(=O)c1ccc(C2CC2)c(OCC2CC2)n1 [Example 246, 5-Cyclopropyl-6-cyclopropylmethoxy-pyridine-2-carboxylic acid ((−)-cyano-methyl-methyl)-amide]",215,2470,–,–
"CCN(C)C(=O)C(CC)(CC)NC(=O)c1ccc(C2CC2)c(OCC2CC2)n1 [Example 276, 5-Cyclopropyl-6-cyclopropylmethoxy-pyridine-2-carboxylic acid [1-ethyl-1-(ethyl-methyl-carbamoyl)-propyl]-amide]",24.6,> 10000,–,–
"CNC(=O)[C@H](CC(C)(C)C)NC(=O)c1ccc(C(F)(F)F)c(OCC2CCOCC2)n1 [Example 230, 6-(Tetrahydro-pyran-4-ylmethoxy)-5-trifluoromethyl-pyridine-2-carboxylic acid ((S)-3,3-dimethyl-1-methylcarbamoyl-butyl)-amide]",29.4,1590,–,–
"CNC(=O)[C@@H](NC(=O)c1cccc(-c2ccccc2)n1)C(C)(C)C [Example 204, (S)-N-(3,3-Dimethyl-1-(methylamino)-1-oxobutan-2-yl)-6-phenylpicolinamide]",13.2,737,–,–
O=C(c1ccc(N2CCC(F)(F)C2)c(OCC2CC2)n1)N1CCS(=O)(=O)CC1 [Example 79],2040,> 10000,–,–
"CC(C)C(C)(NC(=O)c1ccc(C2CC2)c(OCC2CC2)n1)C(N)=O (stereo not drawn) [Example 169, N-(1-Amino-2,3-dimethyl-1-oxobutan-2-yl)-5-cyclopropyl-6-(cyclopropylmethoxy)picolinamide]",182,> 10000,–,–
"Cc1nc(C(C)(C)NC(=O)c2ccc(C3CC3)c(OCC3CC3)n2)no1 [Example 45, 5-Cyclopropyl-6-cyclopropylmethoxy-pyridine-2-carboxylic acid [1-methyl-1-(5-methyl-[1,2,4]oxadiazol-3-yl)-ethyl]-amide]",87.1,1060,–,–
"CNC(=O)[C@H](CC(C)(C)C)NC(=O)c1ccc(N2CC(F)(F)C2)c(OCC2CC2)n1 [Example 209, (S)-6-(Cyclopropylmethoxy)-5-(3,3-difluoroazetidin-1-yl)-N-(4,4-dimethyl-1-(methylamino)-1-oxopentan-2-yl)picolinamide]",2.5,> 10000,–,–
"O=C(NC(c1ccccn1)C(F)(F)F)c1ccc(C2CC2)c(OCC(F)(F)F)n1 (stereo not drawn) [Example 302, 5-Cyclopropyl-6-(2,2,2-trifluoro-ethoxy)-pyridine-2-carboxylic acid (2,2,2-trifluoro-1-pyridin-2-yl-ethyl)-amide]",587,> 10000,–,–
"CC1(NC(=O)c2ccc(N3CC(F)(F)C3)c(OCC3CC3)n2)COC1 [Example 370, 6-Cyclopropylmethoxy-5-(3,3-difluoro-azetidin-1-yl)-pyridine-2-carboxylic acid (3-methyl-oxetan-3-yl)-amide]",96.4,> 10000,–,–
